Consider two compounds from ChEMBL document CHEMBL4665707, “Lung Protection by Cathepsin C Inhibition: A New Hope for COVID-19 and ARDS?” (J Med Chem, 2020).

Experiment [1] in a line: Reduction in whole blood neutrophil elastase activity in healthy human subjects at 10 mg dosed daily via oral route. It counts as functional.
A short description of experiment [2]: Reduction in whole blood neutrophil elastase activity in healthy human subjects at 25 mg dosed daily via oral route. It counts as functional.
The nature of experiment [3]: Reduction in whole blood neutrophil elastase activity in healthy human subjects at 40 mg dosed daily via oral route. It counts as functional.
In a further experiment the target is Dipeptidyl peptidase 1 (Homo sapiens, UniProt P53634). Briefly: Inhibition of human cathepsin C.
Sequence of Dipeptidyl peptidase 1 (P53634 25-134 limits assumed): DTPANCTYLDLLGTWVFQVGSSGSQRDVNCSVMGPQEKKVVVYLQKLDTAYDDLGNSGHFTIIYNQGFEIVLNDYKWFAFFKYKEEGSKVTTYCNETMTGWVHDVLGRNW
Sequence of Dipeptidyl peptidase 1 (P53634 231-394 limits assumed): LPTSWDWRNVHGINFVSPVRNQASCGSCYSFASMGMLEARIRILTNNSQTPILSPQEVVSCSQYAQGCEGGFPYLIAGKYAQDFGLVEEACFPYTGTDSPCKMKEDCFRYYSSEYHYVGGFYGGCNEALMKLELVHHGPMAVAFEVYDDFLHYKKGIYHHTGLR
Sequence of Dipeptidyl peptidase 1 (P53634 395-463 limits assumed): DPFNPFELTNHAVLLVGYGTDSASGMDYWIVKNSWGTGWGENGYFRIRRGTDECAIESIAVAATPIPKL

Consider `Cn1c(=O)oc2ccc(-c3ccc(C[C@@H](C#N)NC(=O)[C@@H]4CNCCCO4)cc3)cc21` [BRENSOCATIB], for which the “inhibition (INH)” value in experiment [1] came out at 30%; in experiment [2] it was 49%; in experiment [3], 59%.
On Dipeptidyl peptidase 1, `CC[C@H](N)C(=O)N[C@]1(C#N)C[C@@H]1c1ccc(-c2ccc(S(=O)(=O)N3CCN(C)CC3)cc2)cc1` had a half-inhibitory concentration (IC50) of 15 nM.
